Data: US10273290B2, “Hydrocarbon double-stapled stabilized HIV-1 GP41 heptad repeat domain peptides” (DANA-FARBER CANCER INSTITUTE, INC., priority 2009, dated 2019)
Bridge positions count the residues as written; N and C are the ends. Square brackets hold non-standard residues; d marks the D form. Ends that are not written are not given here. Peptide text beside a SMILES is read from it. * marks the point of attachment. FITC = O=C1OC2(c3ccc(O)cc3Oc3cc(O)ccc32)c2ccc(NC(=S)*)cc21; S5 = C=CCCC[C@](C)(N)C(=O)O; Nle = CCCC[C@H](N)C(=O)O

Columns and labels:
[1] = Circular dichroism, α-helical content; format: physicochemical
Experimental: The α-helicity of stapled modified polypeptides was compared to their unmodified counterparts by circular dichroism. CD spectra were obtained on an Aviv spectropolarimeter at 20° C. using the following standard measurement parameters: wavelength, 190-260 nm; step resolution, 0.5 nm; speed, 20 nm/sec; accumulations, 10; response, 1 sec; bandwidth, 1 nm; path length, 0.1 cm. The α-helical content of each peptide was calculated by dividing the mean residue ellipticity [θ]222obs, by the reported [θ]222obs for a model helical peptide (Forood, B., E. J. Feliciano, and K. P. Nambiar, PNAS, 1993. 90(3): p. 838-842; J. Martin Scholtz, Biopolymers, 1991. 31(13): p. 1463-1470; Lawless, M. K., et al., Biochemistry, 1996. 35(42): p. 13697-13708) or using, for example, the Aviv machine using CDNN software developed by Brohm in order to deduce five different secondary structure fractions (helix, parallel and antiparallel beta-sheet, beta-turn and random coil). Protein Engineering, 1992. 5(3); p. 191-195
In order to evaluate secondary structure improvements of hydrocarbon-stapled peptides, we record and analyze circular dichroism (CD) spectra on an Aviv Biomedical spectrometer (model 410), as described above. […] The CD spectra are initially plotted as wavelength versus millidegree. […] After conversion to mean residue ellipticity, percent α-helicity can be calculated using the equation, % helicity=100×[θ]222/^max[θ]222, where ^max[θ]222=−40,000×[1−(2.5/number of amino acid residues)]. We also employ the curve-fitting CDDN software that is bundled with our spectrometer to calculate the relative fractions of secondary structure including α-helix, parallel and antiparallel β-sheet, β-turn and random coil.

chymotrypsin = target: T1, chymotrypsin (Bos taurus, UniProt P00766); assay: Protease resistance assay, chymotrypsin (LC/MS); format: in vitro ADME; details: pH 7.4, 0.5 chymotrypsin, peptide 25 μM
T1 construct: purchased Sigma
Experimental: The DAD signal was set to 280 nm with an 8 nm bandwidth and MSD set to scan mode with one channel at (M+2H)/2, +1 mass units and the other at (M+3H)/3, +1 mass units. Integration of each MSD signal yielded areas under the curve of >10^8 counts. Reaction samples were composed of 5 μL peptide in DMSO (1 mM stock) and 195 μL of buffer consisting of 50 mM phosphate buffer pH 7.4 containing 2 mM CaCl2. Upon injection of the 0 hr time point sample, 2 μL of 50 ng/μL chymotrypsin (Sigma) was added and the amount of intact peptide quantitated by serial injection over time. An internal control of acetylated tryptophan carboxamide at a concentration of 100 μM was used to normalize each MSD data point. A plot of MSD area versus time yielded an exponential decay curve and half-lives were determined by nonlinear regression analysis using Prism software (GraphPad).

Chymotrypsin, pH 7 = assay: Chymotrypsin, pH 7
Source text: Table printed on a drawing sheet, FIG. 17D
Title: Chymotrypsin, pH 7
First reader's note: The table also serves as the legend of the plot below it (fraction intact over time); the plot symbols before the compound names are left out.

[2] = system: doubly-mutant HR1 peptides V38A/N42T and V38E/N42S; assay: Native PAGE complex assembly with mutant HR1 peptides; format: binding, HIV-1; details: for higher-order complex formation with doubly-mutant HR1 peptides: FITC-labeled peptides, native PAGE
Source text: We first performed a native PAGE-based assay designed to monitor the capacity of FITC-HR2 and mutant HR1 peptides to interact to form a stable higher-order complex (He, Y., et al. PNAS (2008)).

pepsin = assay: Protease resistance assay, pepsin at pH 2; details: pepsin at 0.5 ng/μL, peptide 25 μM, acidic conditions
Experimental: The DAD signal was set to 280 nm with an 8 nm bandwidth and MSD set to scan mode with one channel at (M+2H)/2, +1 mass units and the other at (M+3H)/3, +1 mass units. […] Reaction samples were composed of 5 μL peptide in DMSO (1 mM stock) and 195 μL of buffer consisting of 50 mM phosphate buffer pH 7.4 containing 2 mM CaCl2. Upon injection of the 0 hr time point sample, 2 μL of 50 ng/μL chymotrypsin (Sigma) was added and the amount of intact peptide quantitated by serial injection over time. An internal control of acetylated tryptophan carboxamide at a concentration of 100 μM was used to normalize each MSD data point. A plot of MSD area versus time yielded an exponential decay curve and half-lives were determined by nonlinear regression analysis using Prism software (GraphPad). The assay was also performed using trypsin and pepsin in their appropriate buffer conditions.

CCCC[C@H](NC(C)=O)C(=O)N[C@H](C(=O)N[C@@H](Cc1c[nH]c2ccccc12)C(=O)N[C@@H](CCCC)C(=O)N[C@@H](CCC(=O)O)C(=O)N[C@@H](Cc1c[nH]c2ccccc12)C(=O)N[C@@H](CC(=O)O)C(=O)N[C@@H](CCCNC(=N)N)C(=O)N[C@@H](CCC(=O)O)C(=O)N[C@H](C(=O)N[C@@]1(C)CCCC=CCCC[C@@](C)(C(=O)N[C@@H](CC(C)C)C(=O)N[C@H](C(=O)N[C@@H](Cc2c[nH]cn2)C(=O)N[C@@H](CO)C(=O)N[C@@H](CC(C)C)C(=O)N[C@H](C(=O)N[C@@H](CCC(=O)O)C(=O)N[C@@H](CCC(=O)O)C(=O)N[C@@H](CO)C(=O)N[C@@H](CCC(N)=O)C(=O)N[C@@H](CC(N)=O)C(=O)N[C@@H](CCC(N)=O)C(=O)N[C@@]2(C)CCCC=CCCC[C@@](C)(C(=O)N[C@@H](CCC(N)=O)C(=O)N[C@@H](CCC(=O)O)C(=O)N[C@@H](CC(C)C)C(=O)N[C@@H](CC(C)C)C(=O)N[C@@H](CCC(=O)O)C(N)=O)NC(=O)[C@H](CC(N)=O)NC(=O)[C@H](CCCCN)NC(=O)[C@H](CCC(=O)O)NC2=O)[C@@H](C)CC)[C@@H](C)CC)NC(=O)[C@H]([C@@H](C)O)NC(=O)[C@H](Cc2ccc(O)cc2)NC(=O)[C@H](CC(N)=O)NC1=O)[C@@H](C)CC)[C@@H](C)O [SAH-gp41(626-662)(C, F)] (Ac-[Nle]TW[Nle]EWDREI[S5]NYT[S5]LIHSLIEESQNQ[S5]EKN[S5]QELLE-NH2; staple 11-15, 28-32)
% helicity at pH 2 [1]: 55%
% helicity at pH 7 [1]: 41%
Half-Life (chymotrypsin): 8.23 h

CCCC[C@H](NC(C)=O)C(=O)N[C@H](C(=O)N[C@@H](Cc1c[nH]c2ccccc12)C(=O)N[C@@H](CCCC)C(=O)N[C@@H](CCC(=O)O)C(=O)N[C@@H](Cc1c[nH]c2ccccc12)C(=O)N[C@@H](CC(=O)O)C(=O)N[C@@H](CCCNC(=N)N)C(=O)N[C@@H](CCC(=O)O)C(=O)N[C@H](C(=O)N[C@@H](CC(N)=O)C(=O)N[C@@H](CC(N)=O)C(=O)N[C@@H](Cc1ccc(O)cc1)C(=O)N[C@H](C(=O)N[C@@]1(C)CCCC=CCCC[C@@](C)(C(=O)N[C@@H](CC(C)C)C(=O)N[C@H](C(=O)N[C@@H](CCC(=O)O)C(=O)N[C@@H](CCC(=O)O)C(=O)N[C@@H](CO)C(=O)N[C@@H](CCC(N)=O)C(=O)N[C@@H](CC(N)=O)C(=O)N[C@@H](CCC(N)=O)C(=O)N[C@@]2(C)CCCC=CCCC[C@@](C)(C(=O)N[C@@H](CCC(N)=O)C(=O)N[C@@H](CCC(=O)O)C(=O)N[C@@H](CC(C)C)C(=O)N[C@@H](CC(C)C)C(=O)N[C@@H](CCC(=O)O)C(N)=O)NC(=O)[C@H](CC(N)=O)NC(=O)[C@H](CCCCN)NC(=O)[C@H](CCC(=O)O)NC2=O)[C@@H](C)CC)NC(=O)[C@H](Cc2c[nH]cn2)NC(=O)[C@H]([C@@H](C)CC)NC(=O)[C@H](CC(C)C)NC1=O)[C@@H](C)O)[C@@H](C)CC)[C@@H](C)O [SAH-gp41(626-662)(D, F)] (Ac-[Nle]TW[Nle]EWDREINNYT[S5]LIH[S5]LIEESQNQ[S5]EKN[S5]QELLE-NH2; staple 15-19, 28-32)
Half-Life (chymotrypsin): 3.02 h

Enfuvirtide
Half-Life (Chymotrypsin, pH 7): 0.2 h

FITC-SAH-gp41(626-662)(A, F): FITC-labeled doubly stapled SAH-gp41(626-662)(A, F) ({FITC}-LTWAEWDAEINNYTSLIHSLIEESQNQAEKNAQELLE; not fully specified (bridges); also: doubly stapled, positions not given here)
higher-order complex formation with doubly-mutant HR1 peptides [2]: formed a higher-order complex
fold enhancement in binding activity ([2]; compared to FITC-T649v, densitometric analyses): up to 2 fold

FITC-T649v: FITC-labeled T649v ({FITC}-LTWLEWDREINNYTSLIHSLIEESQNQQEKNEQELLE) [reference compound]
higher-order complex formation with doubly-mutant HR1 peptides [2]: formed a higher-order complex

FITC-labeled enfuvirtide: FITC-labeled enfuvirtide [reference compound]
higher-order complex formation with doubly-mutant HR1 peptides [2]: no interactions

enfuvirtide [listing 1 of 5 here]
Half-Life (Chymotrypsin, pH 7): 0.417 h
% helicity at pH 2 [1]: 79%
% helicity at pH 7 [1]: 23%
Half-life (minutes), pepsin (pepsin): 3 min

enfuvirtide [listing 2 of 5 here]
% helicity at pH 2 [1]: 57%
% helicity at pH 7 [1]: 30%

enfuvirtide [listing 3 of 5 here]
Half-life (minutes), pepsin (pepsin): 920 min

enfuvirtide [listing 4 of 5 here]
Half-Life (Chymotrypsin, pH 7): 1.67 h
% helicity at pH 2 [1]: 61%
% helicity at pH 7 [1]: 48%
Half-life (minutes), pepsin (pepsin): 227 min

enfuvirtide [listing 5 of 5 here]
% helicity at pH 2 [1]: 66%
% helicity at pH 7 [1]: 26%

unstapled counterpart: unstapled 20-mer truncation of T649v, residues 626-645 ([Nle]TW[Nle]EWDREINNYTSLIHSL) [reference compound]
α-helical content ([1]; comparative CD spectra, 20-mer residues 626-645): 20%
